Data on six compounds can be found in US20260137084A1, “NOVALURON MIXTURES FOR EFFICIENT INSECTICIDAL CONTROLS” (ADAMA MAKHTESHIM LTD., priority 2022, published 2026).

One test concerns S. frugiperda. The experiment in a line: Insecticidal efficacy (% control) and Colby synergy against S. frugiperda. To be noted: 120 hours after treatment. It counts as in vivo, Spodoptera frugiperda. On the procedure: (§1) Different concentrations of each of the active ingredients are applied to different species of insects. The percent controls are determined sometime after treatment.
(§2) Colby's method, is used to determine if synergy exists for a combination of active ingredients. According to Colby, the expected action (E) of active ingredients A+B is:
(§3) [formula] • where E=expected efficacy, A and B=the efficacy of two active ingredients A and B at a given dose.
(§4) When the percentage of control observed (O) for the combination is greater than the expected (E) percentage, there is a synergistic effect. The synergism ratio (R) is calculated as the ratio between the […].
(§5) The insecticidal compounds A (Novaluron) and B (mix partner) are formulated as equivalent compositions to eliminate the effects of differing formulation inerts on biological activity. Efficacy of the insecticidal compositions is evaluated with reference to a scale of 0% to 100% in comparison with untreated control plots. 0 means no damage and 100 means complete destruction of the harmful pests.
(§6) The experiments were conducted by applying commercially available formulations of Novaluron and other mixture partners, alone or with their tank-mixed compositions with the same weight ratio. The compositions were diluted with water or some other suitable solvents to the stated concentration of the active compounds.
(§7) Each formulation with active ingredient is diluted with water or other suitable solvent(s) to the ppm (parts per million) level and biological efficacy trials on pests are conducted.

In another test the test system is H. armigera. The experiment in a line: Insecticidal efficacy (% control) and Colby synergy against H. armigera. To be noted: 120 hours after treatment. It is filed as in vivo, Helicoverpa armigera. On the procedure:
as §1, §2, §3, §4, §5, §6, §7

As for Nicofluprole, the entries for the “Observed % control (O)” value in the test on S. frugiperda (Rate 0.5 ppm), with S. frugiperda (Rate 1 ppm) and in the test with H. armigera (Rate 5 ppm) were 20%, 40% and 30%, respectively.
For the compound `CCN(C(=O)CCSCCC(F)(F)F)c1cn(-c2cccnc2)nc1Cl` [Tyclopyrazoflor], the “Observed % control (O)” value with S. frugiperda (Rate 5 ppm) and in the test on H. armigera (Rate 160 ppm) was 20% in each case.
As to `O=C(N=c1ccccn1Cc1ccc(Cl)nc1)C(F)(F)F` [Flupyrimin], the “Observed % control (O)” value in the test on S. frugiperda (Rate 10 ppm) is recorded as 10%.
Regarding `Cc1cccn2c(=O)c(-c3cc(Cl)cc(Cl)c3)c([O-])[n+](Cc3cnc(Cl)s3)c12` [Dicloromezotiaz], the “Observed % control (O)” value in the test on S. frugiperda (Rate 1 ppm) is recorded as 0%; in the test with S. frugiperda (Rate 2.5 ppm), 40%; in the test with S. frugiperda (Rate 5 ppm) it was 20%; in the test on H. armigera (Rate 40 ppm) it was 40%.
On to `O=C(NC(=O)c1c(F)cccc1F)Nc1ccc(OC(F)(F)C(F)OC(F)(F)F)c(Cl)c1` (single isomer, unassigned; (+)) [Novaluron, (+)-1-[3-chloro-4-(1,1,2-trifluoro-2-trifluoromethoxyethoxy)phenyl]-3-(2,6-difluorobenzoyl) urea], for which the “Observed % control (O)” value in the test with S. frugiperda (Rate 0.01 ppm) was determined as 16%; in the test with H. armigera (Rate 0.1 ppm) it was 20%; in the test with H. armigera (Rate 0.2 ppm) it was 20%.
Take `CCN1OCC(NC(=O)c2ccc(C3=NOC(c4cc(Cl)c(F)c(Cl)c4)(C(F)(F)F)C3)cc2C)C1=O` (centres unmarked) [Isocycloseram]: the “Observed % control (O)” value was 20% with S. frugiperda (Rate 5 ppm), 20% in the test on S. frugiperda (Rate 10 ppm), 20% with H. armigera (Rate 10 ppm) and 50% in the test with H. armigera (Rate 20 ppm).
